Measurements published in ChEMBL document CHEMBL4342418, “1,2,3-Triazole-containing hybrids as potential anticancer agents: Current developments, action mechanisms and structure-activity relationships” (Eur J Med Chem, 2019).
Converted amounts (≈) assume the structure as drawn.

How the values were obtained:
T47D [1] = assay: Antiproliferative activity against human T47D cells assessed as reduction in cell viability after 48 hrs by MTT assay; type: functional, cell-based
MCF7 [2] = assay: Antiproliferative activity against human MCF7 cells assessed as reduction in cell viability after 48 hrs by MTT assay; type: functional, cell-based; details: MCF7, 48 h
Caco-2 = assay: Antiproliferative activity against human Caco2 cells assessed as reduction in cell viability after 48 hrs by MTT assay; type: functional, cell-based; details: Caco-2, 48 h
HCT-116 [3] = assay: Antiproliferative activity against human HCT116 cells assessed as reduction in cell viability after 48 hrs by MTT assay; type: functional, cell-based; details: HCT-116, 48 h
HCT-116 [4] = assay: Antiproliferative activity against human HCT116 cells by MTT assay; type: functional, cell-based
HepG2 [5] = assay: Antiproliferative activity against human HepG2 cells by MTT assay; type: functional, cell-based
MCF7 [6] = assay: cells; type: functional, cell-based; details: Homo sapiens
Description: Antiproliferative activity against human MCF7 cells by MTT assay

MDA-MB-231 [7] = assay: Antiproliferative activity against human MDA-MB-231 cells assessed as reduction in cell viability after 48 hrs by MTT assay; type: functional, cell-based; details: MDA-MB-231, 48 h
HeLa [8] = assay: Antiproliferative activity against human HeLa cells assessed as reduction in cell viability after 48 hrs by MTT assay; type: functional, cell-based
MGC-803 = assay: Antiproliferative activity against human MGC803 cells by MTT assay; type: functional, cell-based
SK-N-SH = assay: Antiproliferative activity against human SK-N-SH cells by MTT assay; type: functional, cell-based
DU-145 [9] = assay: Antiproliferative activity against human DU145 cells by SRB assay; type: functional, cell-based
HepG2 [10] = assay: Antiproliferative activity against human HepG2 cells by SRB assay; type: functional, cell-based
HeLa [11] = assay: Antiproliferative activity against human HeLa cells by SRB assay; type: functional, cell-based
MDA-MB-231 [12] = assay: Antiproliferative activity against human MDA-MB-231 cells by SRB assay; type: functional
SUM-159-PT = assay: Antiproliferative activity against human SUM159 cells assessed as reduction in cell viability after 72 hrs by MTT assay; type: functional, cell-based
SK-BR-3 = assay: Antiproliferative activity against human SKBR3 cells assessed as reduction in cell viability after 72 hrs by MTT assay; type: functional, cell-based; details: SK-BR-3, 72 h
KG-1a = assay: Antiproliferative activity against human KG1a cells assessed as reduction in cell viability after 72 hrs by MTT assay; type: functional, cell-based
A549 [13] = assay: Antiproliferative activity against human A549 cells assessed as reduction in cell viability after 48 hrs by MTT assay; type: functional, cell-based; details: A549, 48 h
HEK293 = assay: Cytotoxicity against HEK293 cells assessed as reduction in cell viability after 48 hrs by MTT assay; type: cell-based; details: Homo sapiens, HEK293, 48 h
DU-145 [14] = assay: Antiproliferative activity against human DU145 cells assessed as reduction in cell viability after 48 hrs by MTT assay; type: functional, cell-based; details: DU-145, 48 h
MCF7 [15] = assay: Antiproliferative activity against human MCF7 cells assessed as reduction in cell viability after 72 hrs by MTT assay; type: functional, cell-based; details: MCF7, 72 h
T47D [16] = assay: Antiproliferative activity against human T47D cells assessed as reduction in cell viability after 72 hrs by MTT assay; type: functional, cell-based
[17] = Antiproliferative activity against human SMCC7721 cells assessed as reduction in cell viability after 48 hrs by MTT assay; type: functional, cell-based
SW480 = assay: Antiproliferative activity against human SW480 cells assessed as reduction in cell viability after 48 hrs by MTT assay; type: functional, cell-based; details: SW480, 48 h
A549 [18] = assay: Antiproliferative activity against human A549 cells by SRB assay; type: functional, cell-based
C2C12 = assay: Cytotoxicity against mouse C2C12 cells assessed as reduction in cell viability after 48 hrs by MTT assay; type: cell-based; details: C2C12, 48 h
HT-29 [19] = assay: Antiproliferative activity against human HT-29 cells assessed as reduction in cell viability after 48 hrs by MTT assay; type: functional, cell-based; details: HT-29, 48 h
HT-29 [20] = assay: Antiproliferative activity against human HT-29 cells assessed as reduction in cell viability after 72 hrs by MTT assay; type: functional, cell-based; details: HT-29, 72 h
MCF-10A = assay: Cytotoxicity against human MCF10A cells by MTT assay; type: cell-based
MDA-MB-231 [21] = assay: Antiproliferative activity against human MDA-MB-231 cells by MTT assay; type: functional, cell-based

SMILES: O=C(Cn1cc(C(O)(c2ccccc2)c2ccccc2)nn1)N1CCN(c2nc3ccccc3s2)CC1
- IC50 (T47D [1]): 33 to 154 µM
- IC50 (MCF7 [2]): 33 to 154 µM
- IC50 (Caco-2): 33 to 154 µM
- IC50 (HCT-116 [3]): 33 to 154 µM

SMILES: CNC(=S)N1N=C(c2nnn(-c3ccc(-n4nnc(C5=NN(C(=S)NC)C(c6ccccc6)C5)c4C)cc3)c2C)CC1c1ccccc1 (stereo not given)
- IC50 (HCT-116 [4]): > 100 µg/mL
- IC50 (HepG2 [5]): > 100 µg/mL
- IC50 (MCF7 [6]): 3.46 µg/mL

SMILES: O=C(Cn1cc(CCCO)nn1)N1CCN(c2nc3ccccc3s2)CC1
- IC50 (T47D [1]): 33 to 48 µM
- IC50 (MCF7 [2]): 33 to 48 µM
- IC50 (Caco-2): 33 to 48 µM
- IC50 (HCT-116 [3]): 33 to 48 µM

SMILES: N#CC1=C(N)Oc2ccccc2C12C(=O)N(Cc1cn(CCCCBr)nn1)c1ccccc12 (stereo not given)
- IC50 (MCF7 [2]): 4.8 to 9.21 µM
- IC50 (MDA-MB-231 [7]): 4.8 to 9.21 µM
- IC50 (HeLa [8]): 4.8 to 9.21 µM

SMILES: COc1cc(/C=C/C(=O)c2ccc(OCCCn3cc(CSc4nncs4)nn3)cc2)cc(OC)c1OC
- IC50 (MGC-803): 1.52 to 10.4 µM
- IC50 (SK-N-SH): 1.52 to 10.4 µM
- IC50 (HepG2 [5]): 1.52 to 10.4 µM

SMILES: Cc1ccc(-c2nn(Cc3cn(Cc4ccccc4)nn3)c(=O)o2)cc1
- GI50 (DU-145 [9]): 0.82 to 2.39 µM
- GI50 (HepG2 [10]): 0.82 to 2.39 µM
- GI50 (HeLa [11]): 0.82 to 2.39 µM
- GI50 (MDA-MB-231 [12]): 0.82 to 2.39 µM

SMILES: Fc1cccc(COc2ccc(Nc3ncnc4ccc(-n5cc(CNC6CCN(Cc7cccnc7)CC6)nn5)cc34)cc2Cl)c1
- IC50 (SUM-159-PT): 2.06 to 7.47 µM
- IC50 (SK-BR-3): 2.06 to 7.47 µM
- IC50 (KG-1a): 2.06 to 7.47 µM

SMILES: O=C(c1cn(Cc2ccc(-c3ccc(Cl)cc3)cc2)nn1)c1c(-c2ccccc2)nc2ccccn12
- IC50 (A549 [13]): 0.51 to 3.98 µM
- IC50 (HEK293): 91.2 µM
- IC50 (MDA-MB-231 [7]): 0.51 to 3.98 µM
- IC50 (HCT-116 [3]): 0.51 to 3.98 µM
- IC50 (DU-145 [14]): 0.51 to 3.98 µM

SMILES: COc1ccc(Cn2cc(CNC(=O)c3cc(-c4ccccc4)on3)nn2)cc1
- GI50 (MCF7 [15]): 27.7 to 85.7 µg/mL (≈ 71.1 to 220 µM)
- GI50 (T47D [16]): 27.7 to 85.7 µg/mL (≈ 71.1 to 220 µM)

SMILES: COc1cc([C@@H]2c3cc4c(cc3[C@H](n3cc(CO[C@@H]5O[C@H](COC(C)(C)C)[C@@H](OC(C)(C)C)[C@H](OC(C)(C)C)[C@H]5OC(C)(C)C)nn3)[C@H]3COC(=O)[C@H]23)OCO4)cc(OC)c1OC
- IC50 (A549 [13]): 0.49 to 6.7 µM
- IC50 (MCF7 [2]): 0.49 to 6.7 µM
- IC50 [17]: 0.49 to 6.7 µM
- IC50 (SW480): 0.49 to 6.7 µM

SMILES: COc1cc(/C=C/C(=O)c2ccc(OCCCn3cc(CSC4=NCCS4)nn3)cc2)cc(OC)c1OC
- IC50 (MGC-803): 1.52 to 10.4 µM
- IC50 (SK-N-SH): 1.52 to 10.4 µM
- IC50 (HepG2 [5]): 1.52 to 10.4 µM

SMILES: O=C(Cn1cc(CO)nn1)N1CCN(c2nc3ccccc3s2)CC1
- IC50 (T47D [1]): 33 to 154 µM
- IC50 (MCF7 [2]): 33 to 154 µM
- IC50 (Caco-2): 33 to 154 µM
- IC50 (HCT-116 [3]): 33 to 154 µM

SMILES: COc1ccc(/C=C/C(=O)c2cc(OC)c(OC)c(OC)c2)cc1OCc1cn(Cc2ccc(F)cc2)nn1
- GI50 (DU-145 [9]): 1.3 to 8.2 µM
- GI50 (A549 [18]): 1.3 to 8.2 µM
- GI50 (HepG2 [10]): 1.3 to 8.2 µM
- GI50 (HeLa [11]): 1.3 to 8.2 µM

SMILES: O=C(Nc1cccc(-n2cc(Oc3ccc(-c4cc(-c5ccc(Oc6cn(-c7cccc(NC(=O)[C@@H]8CCCN8)c7)nn6)cc5)cc(-c5ccc(Oc6cn(-c7cccc(NC(=O)[C@@H]8CCCN8)c7)nn6)cc5)c4)cc3)nn2)c1)[C@@H]1CCCN1
- IC50 (MCF7 [2]): 7.1 to 13.4 µM
- IC50 (C2C12): > 40 µM
- IC50 (HCT-116 [3]): 7.1 to 13.4 µM

SMILES: CCOC(=O)c1cn(CC(=O)N2CCN(c3nc4ccccc4s3)CC2)nn1
- IC50 (T47D [1]): 33 to 154 µM
- IC50 (MCF7 [2]): 33 to 154 µM
- IC50 (Caco-2): 33 to 154 µM
- IC50 (HCT-116 [3]): 33 to 154 µM

SMILES: COc1ccc(S(=O)(=O)Nc2cccnc2Nc2ccc(O)cc2)cc1 [ABT-751]
- IC50 (HT-29 [19]): 1.31 to 1.62 µM
- IC50 (A549 [13]): 1.31 to 1.62 µM
- IC50 (HEK293): 1.31 to 1.62 µM
- IC50 (DU-145 [14]): 1.31 to 1.62 µM

SMILES: CS(=O)(=O)CCNCc1ccc(-c2ccc3ncnc(Nc4ccc(OCc5cccc(F)c5)c(Cl)c4)c3c2)o1 [LAPATINIB]
- IC50 (SUM-159-PT): 9.76 to 20.1 µM
- IC50 (SK-BR-3): 9.76 to 20.1 µM
- IC50 (KG-1a): 9.76 to 20.1 µM

SMILES: COC(=O)Nc1nc2cc(C(=O)c3cccs3)ccc2[nH]1 [NOCODAZOLE]
- IC50 (HT-29 [19]): 2.2 to 3.1 µM
- IC50 (A549 [13]): 1.38 to 3.1 µM
- GI50 (DU-145 [9]): 0.011 to 0.034 µM
- IC50 (HEK293): 2.2 to 3.1 µM
- GI50 (HepG2 [10]): 0.011 to 0.034 µM
- IC50 (MDA-MB-231 [7]): 1.38 to 1.65 µM
- GI50 (HeLa [11]): 0.011 to 0.034 µM
- GI50 (MDA-MB-231 [12]): 0.011 to 0.034 µM
- IC50 (HCT-116 [3]): 1.38 to 1.65 µM
- IC50 (DU-145 [14]): 1.38 to 3.1 µM

SMILES: CNC(=O)c1cc(Oc2ccc(NC(=O)Nc3ccc(Cl)c(C(F)(F)F)c3)cc2)ccn1 [SORAFENIB]
- IC50 (MCF7 [15]): 43.3 µM
- IC50 (HT-29 [20]): 5.29 µM

SMILES: CN(C)CCOc1ccc(/C(=C(/CCCl)c2ccccc2)c2ccccc2)cc1 [TOREMIFENE]
- IC50 (MCF-10A): > 100 µM
- IC50 (MCF7 [6]): 7 µM
- IC50 (MDA-MB-231 [21]): 13 µM
